Reference: paper PMC3689833, “Neurochemical Changes in the Mouse Hippocampus Underlying the Antidepressant Effect of Genetic Deletion of P2X7 Receptors” (PLoS ONE, 2013)

Experiments:
[1] = tested on: P2rx7+/+ and P2rx7−/− mice; experiment: Sucrose preference test (SPT), LPS-induced anhedonia; type: in vivo, mouse; conditions: for inhibitory effect on LPS-induced anhedonia in P2rx7−/− mice: acute treatment; for effect on LPS-induced anhedonia in P2rx7−/− mice: subacute 4-day treatment, compared with P2rx7+/+
Protocol: The experiments were performed using the two-bottle sucrose preference paradigm. The decreased preference for sucrose vs. water in this test has been proposed to reflect impaired sensitivity towards reward and to model anhedonia. Mice were offered a choice of 2% sucrose solution or water during 12-hour nocturnal periods (starting at 19∶00). The bottles were weighed before and after each test session to monitor sucrose and water consumption. The relative position of the sucrose and water bottles were swapped every night to avoid place preferences. The baseline sucrose intake was measured under a habituation period of 3–4 days before administering the treatments, and the mean volume ingested over the last 3 training sessions was used as a baseline value. The sucrose consumption was measured for 4 consecutive nights after LPS (0.2 mg/kg i.p.) or saline administration and expressed as g/100 g body weight or as a percentage of the baseline (%).

[2] = tested on: acute hippocampal slices; experiment: [3H]Glutamate and endogenous glutamate release from acute hippocampal slices; type: cell-based, mouse
Protocol: The [^3H]Glu release experiments were conducted using the method described in our previous papers. Briefly, the mice were anaesthetized under light CO2 inhalation, and subsequently decapitated. The hippocampus was dissected from each mouse in ice-cold Krebs solution saturated with 95% O2 and 5% CO2, sectioned (400-µm-thick slices) using a McIlwain tissue chopper and incubated in 1 ml of modified Krebs solution (113 mM NaCl, 4.7 mM KCl, 2.5 mM CaCl2, 1.2 mM KH2PO4, 1.2 mM MgSO4, 25.0 mM NaHCO3, and 11.5 mM glucose), pH 7.4, in the presence of 5 µCi/ml [^3H]glutamic acid ([^3H]Glu, 9.8×10^−8 M, specific activity 51 Ci/mmol; Perkin Elmer) for 45 min. The medium was bubbled with 95% O2 and 5% CO2 and maintained at 32°C. After loading, the slices were continuously superfused with 95% O2 and 5% CO2-saturated modified Krebs solution (flow rate: 0.7 ml/min).
Subsequently, the perfused samples were collected over a 3-min period and measured for tritium content. At 6 min after the start of the collection, the slices were subjected to a 6-min perfusion of the agonist (ATP) at various concentrations (1, 3, 6 and 10 mM) and then changed to normal Krebs solution until the end of the collection period. In some experiments, the P2X1 receptor antagonist, NF449 (100 nM), or the selective P2rx7 antagonist Brilliant blue G (100 nM) was applied to the perfusion solution at 15 min before the beginning of the ATP perfusion.
The radioactivity released from the preparations was measured using a Packard 1900 Tricarb liquid scintillation spectrometer, using Ultima Gold Scintillation cocktail. The release of tritium was expressed as a percentage of the amount of radioactivity in the tissue at the sample collection time (fractional release). The tritium uptake in the tissue was determined as the sum of release+the tissue content after the experiment and expressed in Bq/g. For the evaluation of the basal tritium outflow the fractional release measured in four consecutive 3 min samples under drug free conditions were taken into account. The ATP-induced [^3H]Glu efflux calculated as the net release in response to the respective stimulus by subtracting the release before the stimulation from the values measured after stimulation. Selected samples collected under resting conditions and during the peak of the ATP-evoked response were subjected to further HPLC analyses.
The separation of pre-column dansylated amino acids was performed using a gradient elution-working mode at ambient temperature. The mobile phase A consisted of 5/95 (v/v) 78/22 acetonitrile/methanol in 15 mM ammonium formate buffer, and the mobile phase B was composed of 90/10 (v/v 78/22) acetonitrile/methanol in ammonium formate buffer, pH 3.7. The mobile phase B increased linearly (at 0.11 min to 50% 17 min to 72% and 26 min to 100%, followed by a final run to 54 min), the flow rate was 0.7 ml/min. The analytical and the trap column were equilibrated for 10 min, and enrichment and clean-up procedures were performed. The dansylated derivatives were detected using an absorbance detector (Agilent 1100) at a 319 nm wavelength. The retention time of the dansylated Glu was 11.4 min. Pre-column derivatization was performed by mixing 50 µl of dansyl chloride prepared by dissolving 5 mg 5-(dimethylamino)naphthalene-1-sulfonyl chloride in acetonitrile daily and adding 50 µl of 2 M sodium carbonate, which contained norvaline (20 µM) as an internal standard in 25 µl of sample. After a 10-min reaction time at 60°C, the mixture was acidified using 25 µl of 6 M formic acid and injected onto the “trap-column”.

[3] = tested on: BDNF level in hippocampal slices; experiment: BDNF protein assay (ELISA), in vitro study in hippocampal slices; type: cell-based, mouse; conditions: for effect on the inhibitory effect of BzATP on BDNF level / effect on basal BDNF level, compound alone (no BzATP): CNQX 10 µM, TCN-201 10 µM; for effect on the inhibitory effect of BzATP on BDNF level / effect on basal BDNF level, compound alone (no BzATP) / BDNF level in hippocampal slices in the presence of BzATP: RO-256981 3 µM, MCPG 200 µM; for BDNF level in hippocampal slices in the presence of BzATP: + BzATP 100 µM, BBG 100 nM, DHPG 100 µM; for BDNF level in hippocampal slices, compound alone: RO-256981 3 µM 15 min, DHPG 100 µM 10 min
Protocol: The P2rx7 wild type and knockout mice were anesthetized under light CO2 inhalation and decapitated. The hippocampus was dissected in ice-cold Krebs solution saturated with 95% O2 and 5% CO2, sectioned (400 µm thick slices) using a McIlwain tissue chopper and incubated in 2 ml of modified Krebs solution in the presence of 1 ml Hibernate medium, ascorbic acid (300 µM) and Na2EDTA (30 µM) for 60 min. The medium was bubbled continuously with 95% O2 and 5% CO2 and maintained at 37°C. The P2rx7 agonist, BzATP, was added to the incubation solution for 30 min, whereas BBG was applied 15 min before BzATP application. RO-256981, 6-cyano-7-nitroquinoxaline-2,3-dione (CNQX) and 3-Chloro-4-fluoro-N-[4[[2(phenylcarbonyl)hydrazino]carbonyl]benzyl] benzenesulfonamide (TCN-201) were applied for 15 min, while MCPG was administered for 30 min. The group I metabotropic glutamate receptor agonist, dihydroxyphenylglycine (DHPG), was administered for 10 min. The DHPG, MCPG, and RO-256981 dosages were chosen based on previous studies, [47], [48]. In the experiments with BzATP, Mg^2+ was omitted from the incubation solution. The hippocampal slices were collected, frozen on dry ice and stored at −70°C until further investigation. Each experimental group contained 3–4 mice.
At the time of analysis, the samples were removed from the freezer and weighed. The BDNF extraction procedure was performed in accordance with the methods of a previous study. For the BDNF assays, 2 ml lysis buffer (100 mM PIPES, pH 7, 500 mM NaCl, 0.2% Triton X-100, 0.1% NaN3, 2% BSA, 2 mM EDTA, 200 µM PMSF, 10 µg/mL aprotinin, 1 µg/mL leupeptin, and 0.5 mM sodium vanadate) was added to each sample, and the hippocampus was sonicated at power level 2 using pulses at 1 sec intervals for 10–15 sec. Subsequently, the samples were centrifuged at 16,000 × g for 30 min at 4°C. 100 µl aliquots of the resulting supernatants were removed and diluted with 400 µl of DPBS buffer (137 mM NaCl, 2.68 mM KCl, 1.47 mM KH2PO4, 8.1 mM Na2HPO4 (pH 7.35), 0.9 mM CaCl2·H2O, and 0.5 mM MgCl2·H2O). The supernatants were collected and stored at −70?C until further analysis. For the total free BDNF measurement, the samples were acid treated with 1 µl of 1 N HCl for each 50 µl of diluted samples to decrease the pH to 2.5, followed by incubation at room temperature for 15 min. The samples were neutralized with 1 µl of 1 N NaOH for each 50 µl of diluted samples. The levels of BDNF (both precursor and mature forms) expression were evaluated using an enzyme-linked immunosorbent assay (ELISA) kit and a BDNF Emax ImmunoAssay System (Promega Corporation, Madison, WI, USA), which is specific for mouse BDNF protein, according to the manufacturer’s instructions. The BDNF levels were calculated by plotting the optical density (OD) of each sample against the standard curve. A seven-point standard curve using two-fold serial dilutions in Reagent Diluent (according the manufacturer’s instructions) and a high standard of 500 pg/ml were used for the determination of BDNF levels. The assay detection limits were <15 pg/ml. Absorbance was measured at 450 nm using a Perkin-Elmer Victor 3V 1420 Multilabel Counter.

[4] = P2rx7+/+ slices, BzATP 100 µM 30 min, Mg2+-free

For `CN(C)CCCC1(c2ccc(F)cc2)OCc2cc(C#N)ccc21` (stereo not shown) [citalopram], the “inhibitory effect on LPS-induced anhedonia in P2rx7−/− mice” value [1] was “largely preserved” and the “effect on LPS-induced anhedonia in P2rx7−/− mice” value [1] was “largely preserved”.
In the case of `Nc1ncnc2c1ncn2[C@@H]1O[C@H](COP(=O)(O)OP(=O)(O)OP(=O)(O)O)[C@@H](O)[C@H]1O` [ATP], the “net release of tritium ([3H]Glu, fractional release)” value ([2]; P2rx7+/+ slices, 10 mM ATP, 6-min perfusion) is reported as 3.34±0.57%, the “endogenous glutamate level in effluent (HPLC)” value ([2]; P2rx7+/+ slices, 10 mM ATP, peak vs resting) is reported as “remarkable elevation” and the “efflux of [3H]Glu” value ([2]; P2rx7+/+ slices, 6-min perfusion, 1–10 mM) is reported as “concentration-dependent increase”. The “net [3H]Glu efflux (fractional release)” value ([2]; P2rx7−/− slices, 10 mM ATP) was 0.25±0.43%.
For `O=C(NNC(=O)c1ccc(CNS(=O)(=O)c2ccc(F)c(Cl)c2)cc1)c1ccccc1` [TCN-201, 3-Chloro-4-fluoro-N-[4[[2(phenylcarbonyl)hydrazino]carbonyl]benzyl] benzenesulfonamide], the “effect on the inhibitory effect of BzATP on BDNF level” value (“effect on the inhibitory effect” below) ([3]; P2rx7+/+ slices, BzATP 100 µM) was “occluded” and the “effect on basal BDNF level, compound alone (no BzATP)” value (“effect … (no BzATP)” for short) ([3]; P2rx7+/+ slices) was “unaffected”.
`CC(N)(C(=O)O)c1ccc(C(=O)O)cc1` (stereo not drawn) [MCPG, α-Methyl-4-carboxyphenylglycine] was tested, and the “BDNF level in hippocampal slices in the presence of BzATP” value ([3]; P2rx7+/+ slices, Mg2+-free) was 6.09 ± 1.17 pg/mL, the “decrease of BDNF level in the presence of BzATP” value ([3]; P2rx7+/+ slices, BzATP 100 µM + MCPG 200 µM) was 67.34% and the “effect on the inhibitory effect” value ([3]; P2rx7+/+ slices, BzATP 100 µM) was “did not antagonize”. For the same molecule, the “effect … (no BzATP)” value ([3]; P2rx7+/+ slices) was “significantly diminished”.
With `Nc1ncnc2c1ncn2[C@@H]1O[C@H](COP(=O)(O)OP(=O)(O)OP(=O)(O)O)[C@@H](OC(=O)c2ccc(C(=O)c3ccccc3)cc2)[C@H]1O` [BzATP, 3′-O-(4-benzoyl-benzoyl)adenosine 5′-triphosphate] the “BDNF level in hippocampal slices” value [3, 4] was 13.85 ± 0.98 pg/mL, the “decrease of basal BDNF level” value [3, 4] was 25.73% and the “effect on BDNF level” value ([3]; P2rx7−/− slices, BzATP 100 µM, Mg2+-free) was “without significantly affecting”.
`NC(C(=O)O)c1cc(O)cc(O)c1` (stereo not shown) [DHPG, 3,5-dihydroxyphenylglycine] was tested, and the “BDNF level in hippocampal slices in the presence of BzATP” value ([3]; P2rx7+/+ slices, Mg2+-free) was 54.14 ± 1.92 pg/mL and the “BDNF level in hippocampal slices, compound alone” value ([3]; P2rx7+/+ slices) was 41.59 ± 0.40 pg/mL.
For `N#Cc1cc2[nH]c(=O)c(=O)[nH]c2cc1[N+](=O)[O-]` [CNQX, 6-cyano-7-nitroquinoxaline-2,3-dione], the “effect on the inhibitory effect” value ([3]; P2rx7+/+ slices, BzATP 100 µM) was “occluded” and the “effect … (no BzATP)” value ([3]; P2rx7+/+ slices) was “decreased”.
For `C[C@@H](CN1CCC(Cc2ccccc2)CC1)[C@@H](O)c1ccc(O)cc1.O=C(O)/C=C\C(=O)O` [RO-256981, (αR,βS)-α-(4-Hydroxyphenyl)-β-methyl-4-(phenylmethyl)-1-piperidinepropanol maleate], the “BDNF level in hippocampal slices in the presence of BzATP” value ([3]; P2rx7+/+ slices, Mg2+-free) was 15.75 ± 0.44 pg/mL, the “effect on the inhibitory effect” value ([3]; P2rx7+/+ slices, BzATP 100 µM) was “occluded” and the “effect … (no BzATP)” value ([3]; P2rx7+/+ slices) was “decreased”. For the same molecule, the “BDNF level in hippocampal slices, compound alone” value ([3]; P2rx7+/+ slices) was 15.20 ± 0.12 pg/mL.
In the case of `O=C(CC12CC3CC(CC(C3)C1)C2)Nc1cccc2nc(NCCNCCO)ccc12` [AZ-10606120], the “amount of sucrose consumed on the 3rd day after LPS injection” value ([1]; P2rx7+/+ mice, acute injection 2 mg/kg i.p. 30 min before LPS, vs control) is reported as “significantly higher”, the “amount of sucrose consumed on the day after LPS injection” value ([1]; P2rx7+/+ mice, subacute treatment 2 mg/kg i.p., vs control) is reported as “significantly higher” and the “inhibitory effect on LPS-induced anhedonia in P2rx7−/− mice” value [1] is reported as “completely absent”. For the same molecule, the “effect on LPS-induced anhedonia in P2rx7−/− mice” value [1] was “significantly attenuated”.
`O=C(Nc1cc(C(=O)Nc2ccc(S(=O)(=O)[O-])cc2S(=O)(=O)[O-])cc(C(=O)Nc2ccc(S(=O)(=O)[O-])cc2S(=O)(=O)[O-])c1)Nc1cc(C(=O)Nc2ccc(S(=O)(=O)[O-])cc2S(=O)(=O)[O-])cc(C(=O)Nc2ccc(S(=O)(=O)[O-])cc2S(=O)(=O)[O-])c1.[Na+].[Na+].[Na+].[Na+].[Na+].[Na+].[Na+].[Na+]` [NF449, 4,4′,4′′,4′′′-[Carbonylbis(imino-5,1,3-benzenetriyl-bis(carbonylimino))]tetrakis-1,3-benzenedisulfonic acid, octasodium salt] was tested, and the “residual ATP-evoked [3H]Glu efflux in presence of antagonist” value ([2]; P2rx7−/− slices, ATP 10 mM, antagonist 100 nM 15 min before ATP) was “sensitive to inhibition”.
